# Data: US10781224B2, “Bis(oxymethyl)phosphinic acid and biogenic metal salts thereof as regulators of plant growth and development” (priority 2016, dated 2020)
# Columns and labels:
# [1] = test system: corn (Krasnodar 385 MV variety); assay: Corn seed treatment with BHMPA salts: germinating power; type: in vivo
# Procedure, shortened: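 Seeds (50 per Petri dish on two layers of filter paper) soaked 1 h in BHMPA or its Ca, Mg, Na, Co, Mn, Cu or Zn salts at 1·10^−6-1·10^−12%, with water controls. Germination energy read on day 4, germination on day 8 (wheat) or day 7 (rice, corn), as % means of four replicates. Germinating power taken as root and sprout length plus wet and dry mass per 100 seedlings.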
# rice (Diamant variety) = assay: Rice seed treatment with BHMPA salts: germination energy and germination rate; type: in vivo; conditions: for Germination energy / Germination rate: rice
# Procedure, shortened: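 Corn, winter wheat and rice seeds (50 per dish, on filter paper) were soaked for 1 h in BHMPA or its metal salts at 1·10^−6-1·10^−12%, with water as control. Germination energy was read on day 4 and germination rate on day 8 for wheat and day 7 for rice and corn, following GOST 12038-84, as the mean of four replicates.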
# [2] = corn seeds, solution concentration 1 · 10^−10%, zinc salt of BHMPA
# [3] = corn seeds, solution concentration 1 · 10^−11%, zinc salt of BHMPA
# [4] = corn seeds, solution concentration 1 · 10^−12%, zinc salt of BHMPA
# [5] = rice seed treatment, solution 1 · 10^−10%
# [6] = comparative study vs Melaphen, 1·10^−8% solution
compound,measurement,setting,value
"O=P([O-])(CO)CO.O=P([O-])(CO)CO.[Zn+2] [Zn-salt, Zinc BHMPA Salt]","Length, root",[1]; [2],5.5 cm
same,"Length, root, + % to control",[1]; [2],15%
same,"Length, sprout",[1]; [2],3.7 cm
same,"Length, sprout, + % to control",[1]; [2],12%
same,"Mass, dry, root",[1]; [2],1.13 g/100 plantlings
same,"Mass, dry, root, + % to control",[1]; [2],9%
same,"Mass, dry, sprout",[1]; [2],1.00 g/100 plantlings
same,"Mass, dry, sprout, + % to control",[1]; [2],16%
same,"Mass, wet, root",[1]; [2],6.96 g/100 plantlings
same,"Mass, wet, root, + % to control",[1]; [2],8%
same,"Mass, wet, sprout",[1]; [2],6.29 g/100 plantlings
same,"Mass, wet, sprout, + % to control",[1]; [2],11%
same,"Length, root",[1]; [3],5.2 cm
same,"Length, root, + % to control",[1]; [3],11%
same,"Length, sprout",[1]; [3],3.6 cm
same,"Length, sprout, + % to control",[1]; [3],9%
same,"Mass, dry, root",[1]; [3],1.10 g/100 plantlings
same,"Mass, dry, root, + % to control",[1]; [3],6%
same,"Mass, dry, sprout",[1]; [3],0.97 g/100 plantlings
same,"Mass, dry, sprout, + % to control",[1]; [3],13%
same,"Mass, wet, root",[1]; [3],6.81 g/100 plantlings
same,"Mass, wet, root, + % to control",[1]; [3],6%
same,"Mass, wet, sprout",[1]; [3],5.93 g/100 plantlings
same,"Mass, wet, sprout, + % to control",[1]; [3],4%
same,"Length, root",[1]; [4],4.8 cm
same,"Length, root, + % to control",[1]; [4],2%
same,"Length, sprout",[1]; [4],3.5 cm
same,"Length, sprout, + % to control",[1]; [4],6%
same,"Mass, dry, root",[1]; [4],0.93 g/100 plantlings
same,"Mass, dry, root, + % to control",[1]; [4],−10.5%
same,"Mass, dry, sprout",[1]; [4],0.89 g/100 plantlings
same,"Mass, dry, sprout, + % to control",[1]; [4],3%
same,"Mass, wet, root",[1]; [4],6.47 g/100 plantlings
same,"Mass, wet, root, + % to control",[1]; [4],1%
same,"Mass, wet, sprout",[1]; [4],5.71 g/100 plantlings
same,"Mass, wet, sprout, + % to control",[1]; [4],0.5%
same,"Length, root, + % to control","[1]; corn, 1·10^−8% solution",25.5%
same,"Length, sprout, + % to control","[1]; corn, 1·10^−8% solution",21%
same,"Mass, dry, root, + % to control","[1]; corn, 1·10^−8% solution",31%
same,"Mass, dry, sprout, + % to control","[1]; corn, 1·10^−8% solution",31%
same,"Mass, wet, root, + % to control","[1]; corn, 1·10^−8% solution",27%
same,"Mass, wet, sprout, + % to control","[1]; corn, 1·10^−8% solution",38%
same,"Germination energy, %",rice (Diamant variety); [5],89.5%
same,"Germination rate, %",rice (Diamant variety); [5],96.5%
same,Germination energy,rice (Diamant variety); 1·10^−6% solution,83.0%
same,Germination rate,rice (Diamant variety); 1·10^−6% solution,89.0%
same,Germination energy,rice (Diamant variety); 1·10^−7% solution,85.0%
same,Germination rate,rice (Diamant variety); 1·10^−7% solution,91.7%
same,Germination energy,rice (Diamant variety); 1·10^−8% solution,86.3%
same,Germination rate,rice (Diamant variety); 1·10^−8% solution,94.3%
same,Germination energy,rice (Diamant variety); 1·10^−9% solution,88.7%
same,Germination rate,rice (Diamant variety); 1·10^−9% solution,96.0%
same,Germination energy,rice (Diamant variety); 1·10^−10% solution,87.0%
same,Germination rate,rice (Diamant variety); 1·10^−10% solution,94.0%
same,Germination energy,rice (Diamant variety); 1·10^−11% solution,85.7%
same,Germination rate,rice (Diamant variety); 1·10^−11% solution,91.3%
same,Germination energy,rice (Diamant variety); 1·10^−12% solution,83.7%
same,Germination rate,rice (Diamant variety); 1·10^−12% solution,89.0%
same,Germination energy,rice (Diamant variety); [6],89.5%
same,Germination rate,rice (Diamant variety); [6],96.5%
